One data set deals with MYB mRNA. Put plainly: Splicing RT-qPCR assay, MYB canonical (CJ) and alternative (AJ) junction mRNA. In kind it is cell-based. Conditions: Homo sapiens, A673 or K562 cells, 24 hours; for IC50: decrease in canonical junction mRNA; for AC50: increase in alternative junction mRNA. The procedure, abridged:
(§1)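 RT-qPCR read-out: CJ and AJ junction isoforms quantified from cell lysates, normalized to housekeeping GAPDH/GUSB (K562) or PPIA (A673). Cells had 24 h compound exposure, 11-point 3-fold series from 10 uM final, ≤0.25% DMSO.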

The subject of a further data set is HTT mRNA. The data set can be described thus: Splicing RT-qPCR assay, HTT canonical (CJ) and alternative (AJ) junction mRNA. The format is cell-based. Particulars: Homo sapiens, A673 or K562 cells, 24 hours; for IC50: decrease in canonical junction mRNA; for AC50: increase in alternative junction mRNA. The procedure, abridged:
as §1

A further data set deals with HiBiT-tagged MYB protein. Put plainly: HiBiT protein abundance assay, MYB (K562 HiBiT knock-in cells). In kind it is cell-based, human. Conditions: 24 hours. The procedure, abridged:
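Luminescent readout of HiBiT-tagged endogenous protein after lysis, following 24 h compound exposure of knock-in K562 lines at 37 °C. Ten 3-fold concentrations from 10 μM final, DMSO ≤0.25%. Four-parameter logistic fit of normalized response gives concentration halving abundance (IC50).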

In another data set the test system is K562 cells. The data set can be described thus: Cell Titer Glo 2.0 cell viability assay in K562 cells. Conditions: 72 hours.

Each structure is given as a SMILES string.

In the case of `CNC1CCN(c2ccc(C(=O)Nc3cc(F)c4nc(C)cn4c3)c3ncc(OC)nc23)C1` (stereo in doubt) [Compound 227, (R)—N-(8-fluoro-2-methylimidazo[1,2-a]pyridin-6-yl)-2-methoxy-8-(3-(methylamino)pyrrolidin-1-yl)quinoxaline-5-carboxamide 2,2,2-trifluoroacetate], the IC50 with MYB mRNA is 1000 to 10000 nM; with HTT mRNA, greater than 10000 nM; in the data set on HiBiT-tagged MYB protein, 100 to 1000 nM. Besides, the concentration at half-maximal activity (AC50) in the data set on MYB mRNA is 1000 to 10000 nM; with HTT mRNA, greater than 10000 nM. In the data set on K562 cells, the Viability entry is reported as “A (A represents <100 nM)”.
As for `Cc1cn2cc(NC(=O)c3ccc(N4CCC(NC(C)(C)C)C4)c4ccnnc34)cc(F)c2n1` (centres unmarked) [Compound 109], the IC50 in the data set on MYB mRNA, in the data set on HTT mRNA and with HiBiT-tagged MYB protein was 1000 to 10000 nM each time. Besides, the AC50 in the data set with MYB mRNA and with HTT mRNA was 1000 to 10000 nM throughout.
Take `Cc1cnc2c(C(=O)Nc3cc(F)c4nc(C)cn4c3)ccc(N3C[C@@H](C)N[C@@H](C)C3)c2n1` [Compound 217, 8-((3R,5S)-3,5-dimethylpiperazin-1-yl)-N-{8-fluoro-2-methylimidazo[1,2-a]pyridin-6-yl}-2-methylquinoxaline-5-carboxamide]: the concentration for half-maximal inhibition (IC50) in the data set on MYB mRNA and with HiBiT-tagged MYB protein was less than 100 nM throughout. In the data set with MYB mRNA, this compound came in with a half-maximal activity concentration (AC50) of less than 100 nM. Besides, the Viability result with K562 cells was “B (B represents 100-1000 nM)”.
On to `CCNC1CCN(c2ccc(C(=O)Nc3cc(F)c4nc(C)cn4c3)c3nc(C)ccc23)CC1` [Compound 228, 5-[4-(ethylamino)piperidin-1-yl]-N-{8-fluoro-2-methylimidazo[1,2-a]pyridin-6-yl}-2-methylquinoline-8-carboxamide], for which the IC50 in the data set with MYB mRNA is less than 100 nM; in the data set with HTT mRNA it was 100 to 1000 nM; in the data set with HiBiT-tagged MYB protein, less than 100 nM. In addition, the concentration at half-maximal activity (AC50) in the data set on MYB mRNA and in the data set on HTT mRNA was 100 to 1000 nM each time. The Viability entry in the data set on K562 cells was “A (A represents <100 nM)”.
As to `COCCOc1ccc2c(N3CCC(N(C)C)CC3)ccc(C(=O)Nc3cc(F)c4nc(C)cn4c3)c2n1` [Compound 229, 5-[4-(dimethylamino)piperidin-1-yl]-N-{8-fluoro-2-methylimidazo[1,2-a]pyridin-6-yl}-2-(2-methoxyethoxy)quinoline-8-carboxamide], the figures for the IC50 with MYB mRNA, with HTT mRNA and with HiBiT-tagged MYB protein were 100 to 1000 nM, greater than 10000 nM and less than 100 nM, respectively. Further, the half-maximal activity concentration (AC50) is less than 100 nM in the data set on MYB mRNA and greater than 10000 nM with HTT mRNA. Also, the Viability result in the data set on K562 cells is given as “A (A represents <100 nM)”.
`Cc1cn2cc(NCc3ccc(N4CCNCC4)c4ccnnc34)cc(F)c2n1` [Compound 230, 8-fluoro-2-methyl-N-{[5-(piperazin-1-yl)cinnolin-8-yl]methyl}imidazo[1,2-a]pyridin-6-amine]: the half-inhibitory concentration (IC50) is greater than 10000 nM in the data set on MYB mRNA, 1000 to 10000 nM in the data set with HTT mRNA and greater than 10000 nM in the data set with HiBiT-tagged MYB protein. For the same compound, the concentration at half-maximal activity (AC50) with MYB mRNA and in the data set on HTT mRNA was greater than 10000 nM each time. The Viability result in the data set on K562 cells is “D (D represents greater than 10 μM in K562 cells)”.
As to `CNC1CCN(c2ccc(C(=O)Nc3cc(F)c4nc(C)cn4c3)c3nnccc23)C1` (centres unmarked) [Compound 231, N-{8-fluoro-2-methylimidazo[1,2-a]pyridin-6-yl}-5-[3-(methylamino)pyrrolidin-1-yl] cinnoline-8-carboxamide], the half-inhibitory concentration (IC50) in the data set with MYB mRNA is less than 100 nM; in the data set on HTT mRNA it was 1000 to 10000 nM; with HiBiT-tagged MYB protein it was less than 100 nM. Besides, the AC50 with MYB mRNA is less than 100 nM; in the data set with HTT mRNA, 1000 to 10000 nM. Further, in the data set on K562 cells, the Viability entry is “B (B represents 100-1000 nM)”.
As for `COCCOc1ccc2c(N3C[C@@H](C)N[C@@H](C)C3)ccc(C(=O)Nc3cc(F)c4nc(C)cn4c3)c2n1` [Compound 232, 5-[(3R,5S)-3,5-dimethylpiperazin-1-yl]-N-{8-fluoro-2-methylimidazo[1,2-a]pyridin-6-yl}-2-(2-methoxyethoxy)quinoline-8-carboxamide], the 50% inhibitory concentration (IC50) in the data set on MYB mRNA is 100 to 1000 nM; in the data set with HTT mRNA it was 1000 to 10000 nM; with HiBiT-tagged MYB protein it was less than 100 nM. Moreover, the concentration at half-maximal activity (AC50) in the data set on MYB mRNA was 100 to 1000 nM; with HTT mRNA it was 1000 to 10000 nM.
In the case of `CCNC1CCN(c2ccc(C(=O)Nc3cc(F)c4nc(C)cn4c3)c3nc(OCCOC)ccc23)CC1` [Compound 233, 5-[4-(ethylamino)piperidin-1-yl]-N-{8-fluoro-2-methylimidazo[1,2-a]pyridin-6-yl}-2-(2-methoxyethoxy)quinoline-8-carboxamide], the 50% inhibitory concentration (IC50) is 100 to 1000 nM in the data set on MYB mRNA, 1000 to 10000 nM in the data set with HTT mRNA and less than 100 nM in the data set on HiBiT-tagged MYB protein. Besides, the results for the AC50 in the data set on MYB mRNA and in the data set with HTT mRNA were 100 to 1000 nM and 1000 to 10000 nM, respectively. Moreover, the Viability result with K562 cells was “A (A represents <100 nM)”.
